Like-named read-outs stand apart in the source and are kept apart here.
Columns and labels:
[1] = target: T1, human α1B‐adrenoceptor (Homo sapiens, UniProt P35368); test: ^3H‐prazosin whole‐cell radioligand binding, CHO‐α1B cells; conditions: CHO‐α1B cells; printed as IC50> log value
T1 construct: expressed in transfected cells; host or cells: CHO-K1
T1 sequence (P35368 1-520): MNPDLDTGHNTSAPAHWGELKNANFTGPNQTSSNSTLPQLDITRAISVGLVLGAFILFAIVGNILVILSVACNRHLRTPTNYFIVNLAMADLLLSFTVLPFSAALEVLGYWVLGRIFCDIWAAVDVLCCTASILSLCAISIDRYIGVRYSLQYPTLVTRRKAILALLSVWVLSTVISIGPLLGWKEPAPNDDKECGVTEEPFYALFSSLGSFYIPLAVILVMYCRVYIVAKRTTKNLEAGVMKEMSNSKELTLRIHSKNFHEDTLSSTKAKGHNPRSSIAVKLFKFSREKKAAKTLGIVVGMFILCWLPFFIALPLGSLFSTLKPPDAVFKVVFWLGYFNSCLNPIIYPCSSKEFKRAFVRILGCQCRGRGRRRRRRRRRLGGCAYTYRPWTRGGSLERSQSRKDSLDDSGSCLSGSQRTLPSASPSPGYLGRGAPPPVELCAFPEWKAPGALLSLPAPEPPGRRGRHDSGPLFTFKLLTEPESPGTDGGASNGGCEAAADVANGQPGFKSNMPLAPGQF

[2] = target: T2, human α1D‐adrenoceptor (full length) (Homo sapiens, UniProt P25100); test: ERK1/2‐phosphorylation (Surefire Alphascreen), CHO‐α1D cells; type: cell-based; conditions: for ERK1/2‐phosphorylation Log EC50: log values given negative
T2 construct: human α1D‐adrenoceptor (full length) were used; expressed in transfected cells; host or cells: CHO-K1
T2 sequence (P25100 1-572): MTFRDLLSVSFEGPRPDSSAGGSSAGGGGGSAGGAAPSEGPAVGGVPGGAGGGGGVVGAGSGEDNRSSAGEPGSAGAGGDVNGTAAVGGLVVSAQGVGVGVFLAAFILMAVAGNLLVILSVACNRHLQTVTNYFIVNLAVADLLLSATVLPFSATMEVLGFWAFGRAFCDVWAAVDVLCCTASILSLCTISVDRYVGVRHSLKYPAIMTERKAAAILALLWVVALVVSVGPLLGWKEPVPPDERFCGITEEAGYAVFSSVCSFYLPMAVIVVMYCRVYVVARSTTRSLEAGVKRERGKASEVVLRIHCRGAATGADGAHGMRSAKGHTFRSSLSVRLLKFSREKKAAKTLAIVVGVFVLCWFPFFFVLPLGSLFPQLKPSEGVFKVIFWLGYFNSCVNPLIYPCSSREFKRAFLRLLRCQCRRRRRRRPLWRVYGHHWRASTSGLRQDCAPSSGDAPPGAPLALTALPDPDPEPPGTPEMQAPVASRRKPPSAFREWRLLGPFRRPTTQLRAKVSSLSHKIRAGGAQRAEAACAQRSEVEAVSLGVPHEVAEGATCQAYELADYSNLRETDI

[3] = target: T2, human α1D‐adrenoceptor (full length); test: ^3H‐prazosin whole‐cell radioligand binding, CHO‐α1D cells; conditions: for Affinity selectivity ratio α1B vs α1D: higher affinity for α1D than α1B
[4] = target: T2, human α1D‐adrenoceptor (full length); test: Intracellular free calcium mobilization, CHO‐α1D cells; type: cell-based; conditions: for Intracellular calcium release Log EC50 / Intracellular calcium release % ionomycin: CHO‐α1D cells; for Intracellular calcium release Log EC50: log values given negative; for Intracellular calcium release % ionomycin: maximal response as % of 10 µM ionomycin
[5] = target: T1, human α1B‐adrenoceptor; test: ERK1/2‐phosphorylation (Surefire Alphascreen), CHO‐α1B cells; type: cell-based; conditions: CHO‐α1B cells
[6] = test system: parental CHO cell line without any transfected receptors; test: ERK1/2‐phosphorylation, parent CHO cells without transfected receptors; type: cell-based, Chinese hamster; conditions: for ERK1/2-phosphorylation % PDBu / ERK1/2-phosphorylation Log EC50: CHO cells without transfected receptors, mean ± s.e.m.; for ERK1/2-phosphorylation % PDBu: maximal response as % of PDBu (10μM) response
[7] = target: T1, human α1B‐adrenoceptor; test: Intracellular free calcium mobilization, CHO‐α1B cells; type: cell-based; conditions: CHO‐α1B cells
[8] = target: T3, human α1A‐adrenoceptor (Homo sapiens, UniProt P35348); test: ERK1/2‐phosphorylation (Surefire Alphascreen), CHO‐α1A cells; type: cell-based; conditions: CHO‐α1A cells, no EC50 obtained
T3 construct: expressed in transfected cells; host or cells: CHO-K1
T3 sequence (P35348 1-466): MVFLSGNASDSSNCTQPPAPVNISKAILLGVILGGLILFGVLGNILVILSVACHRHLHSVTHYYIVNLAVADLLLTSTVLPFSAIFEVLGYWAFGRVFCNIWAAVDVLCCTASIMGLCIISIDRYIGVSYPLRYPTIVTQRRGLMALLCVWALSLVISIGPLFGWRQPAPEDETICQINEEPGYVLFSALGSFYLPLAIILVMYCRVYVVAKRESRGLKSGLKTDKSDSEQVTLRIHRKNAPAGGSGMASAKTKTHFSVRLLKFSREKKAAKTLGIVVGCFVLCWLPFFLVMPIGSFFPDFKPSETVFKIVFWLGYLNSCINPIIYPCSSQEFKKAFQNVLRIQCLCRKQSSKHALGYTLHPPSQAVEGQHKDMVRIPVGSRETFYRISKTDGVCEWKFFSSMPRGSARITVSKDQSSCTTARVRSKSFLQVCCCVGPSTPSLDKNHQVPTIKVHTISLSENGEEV

[9] = target: T3, human α1A‐adrenoceptor; test: Intracellular free calcium mobilization, CHO‐α1A cells; type: cell-based; conditions: CHO‐α1A cells
[10] = target: T3, human α1A‐adrenoceptor; test: ^3H‐prazosin whole‐cell radioligand binding, CHO‐α1A cells; conditions: for Affinity selectivity ratio α1A vs α1B: higher affinity for α1A than α1B
[11] = test system: parental CHO cell line without any transfected receptors; test: Forskolin‐stimulated cAMP accumulation, parent CHO cells without transfected receptors; type: cell-based, Chinese hamster; conditions: CHO cells without transfected receptors; in presence of forskolin
[12] = 3H‐prazosin binding Log KD, CHO‐α1D cells, whole‐cell binding (from Table 1), log values given negative
[13] = CHO‐α1D cells, given as log KD (negative), mean ± SEM, 'early plateau' = specific binding not fully inhibited

## CC(C)(C)NCC(O)c1ccc(O)c(CO)c1 (stereo not shown) [Salbutamol]
[1]
  IC50: > 1000 µM
[2]; CHO‐α1D cells, response at 100 µM ligand (no EC50 given)
  ERK1/2‐phosphorylation % PDBu at 100 µM: 4.0 ± 2.5%
[3]; [12]
  Kd: 135 µM
[3]; [13]
  Kd: 135 µM
[4]
  Intracellular calcium release Log EC50: No response
  Intracellular calcium release % ionomycin: No response
[5]; response at 100 µM ligand (no EC50 given)
  ERK1/2‐phosphorylation % PDBu at 100 µM: 7.1 ± 3.5%
[6]; Cricetulus griseus, CHO, read-out: ERK1/2-phosphorylation % PDBu at 100μM
  Emax at 100 µM: 3.5 ± 2%
[7]; given as log EC50 (negative numbers), read-out: Intracellular calcium release Log EC50 (converted)
  EC50: 7.24 µM
[7]; maximal response as % of 10 µM ionomycin response
  Intracellular calcium release % ionomycin: 58.4 ± 3.0%
[8]; response at 100 μM ligand
  ERK1/2‐phosphorylation % PDBu at 100 µM: 4.3 ± 1.9%

## C1=C(c2cnc[nH]2)c2ccsc2CC1 [RWJ52353]
[1]
  Log IC50 α1B, ^3H‐prazosin whole cell binding: IC50 >−3
[2]; CHO‐α1D cells
  ERK1/2‐phosphorylation Log EC50: No response
[2]; CHO‐α1D cells, maximal response as % of PDBu
  ERK1/2‐phosphorylation % PDBu: No response
[3]; CHO‐α1D cells, whole‐cell binding (from Table 1), log values given negative
  3H‐prazosin binding Log KD: −4.30
[3]; [13]
  Log KD α1D, ^3H‐prazosin whole cell binding: −4.30 ± 0.12
[3]
  Affinity selectivity ratio α1B vs α1D: >20 fold
[4]
  Intracellular calcium release Log EC50: No response
  Intracellular calcium release % ionomycin: No response
[9]; response at 10 μM ligand, no EC50 obtained
  Intracellular calcium release % ionomycin at 10 µM: 39.4 ± 2.4%
[6]
  ERK1/2-phosphorylation % PDBu: No response
  ERK1/2-phosphorylation Log EC50: No response
[7]; response at 10 µM ligand (no EC50 given), % of ionomycin response
  Intracellular calcium release % ionomycin at 10 µM: 8.1 ± 3.1%
[10]; CHO‐α1A cells, given as log KD (negative), mean ± SEM
  Log KD α1A, ^3H‐prazosin whole cell binding: −5.28 ± 0.08
[10]
  Affinity selectivity ratio α1A vs α1B: >190 fold
[10]; higher affinity for α1A than α1D
  Affinity selectivity ratio α1A vs α1D: 9.6 fold

## CNC[C@H](O)c1cccc(O)c1 [R-phenylephrine]
[11]
  cAMP accumulation (in presence of forskolin) Log EC50: No response
[6]
  ERK1/2-phosphorylation % PDBu: No response

## C1COC(NC(C2CC2)C2CC2)=N1 [Rilmenidine]
[1]
  IC50: > 100 µM
[2]
  ERK1/2‐phosphorylation % PDBu: No response
[2]; CHO‐α1D cells
  ERK1/2‐phosphorylation Log EC50: No response
[3]; [12]
  Kd: 18.6 µM
[3]; [13]
  Kd: 18.6 µM
[3]; higher affinity for α1D than α1A
  Affinity selectivity ratio α1A vs α1D: 1.7 fold
[3]
  Affinity selectivity ratio α1B vs α1D: >5.4 fold
[4]
  Intracellular calcium release % Ionomycin at 100 µM: 12.0 ± 0.9%
[9]; binding KD and calcium EC50
  Log efficacy ratio KD /EC50: 1.19
[9]; given as log EC50 (negative), read-out: Intracellular calcium release Log EC50 (converted)
  EC50: 2.09 µM
[9]; maximal response as % of 10 µM ionomycin
  Intracellular calcium release % ionomycin: 45.9 ± 3.8%
[5]; for bi‐phasic responses the initial stimulatory part
  ERK1/2‐phosphorylation Log EC50: No response
[5]; maximal response as % PDBu response, for bi‐phasic responses the initial stimulatory part
  ERK1/2‐phosphorylation % PDBu: No response
[6]
  ERK1/2-phosphorylation % PDBu: No response
  ERK1/2-phosphorylation Log EC50: No response
[7]; response at 100 µM ligand (no EC50 given), % of ionomycin response
  Intracellular calcium release % Ionomycin at 100 µM: 20.0 ± 3.9%
[8]; response at 10 μM ligand
  ERK1/2‐phosphorylation % PDBu at 10 µM: 89.0 ± 3.9%
[10]; Log KD α1A, ^3H‐prazosin whole cell binding, CHO‐α1A cells, given as log KD (negative), mean ± SEM
  Kd: 32.4 µM
[10]
  Affinity selectivity ratio α1A vs α1B: >3.1 fold

## Nc1cc(Cl)c(N=C2NCCN2)c(Cl)c1 [Para-amino-clonidine]
[11]
  cAMP accumulation (in presence of forskolin) Log EC50: No response
[6]
  ERK1/2-phosphorylation % PDBu: No response

— article PMC8343220, “The selectivity of α‐adrenoceptor agonists for the human α1A, α1B, and α1D‐adrenoceptors” (Pharmacology Research & Perspectives, 2021)
